One block for each molecule: values may come before it.
How the values were obtained:
20S proteasome = experiment: Inhibition of human 20S proteasome chymotrypsin-like activity using Suc-Leu-Leu-Val-Tyr-AMC as fluorogenic peptide pre-incubated for 10 mins with compound followed by substrate addition for 60 mins by spectrofluorimetric analysis; assay type: protein-complex assay
RPMI-8226 [1] = experiment: Cytotoxicity against human RPMI-8226 cells assessed as inhibition of cell proliferation incubated for 72 hrs by Cell Titer-Glo luminescence assay; assay type: functional, cell-based; conditions: RPMI-8226, 72 h
[2] = Stability of the compound in stimulated […] fluid at pH 1.2 measured after 2 hrs; assay type: ADME; conditions: simulated gi fluid, pH 1.2, 2 h
[3] = Stability of the compound in stimulated […] fluid at pH 1.2 measured after 4 hrs; assay type: ADME; conditions: simulated gi fluid, pH 1.2, 4 h
[4] = Stability of the compound in stimulated […] fluid at pH 1.2 measured after 8 hrs; assay type: ADME; conditions: simulated gi fluid, pH 1.2, 8 h
[5] = Stability of the compound in stimulated […] fluid at pH 1.2 measured after 12 hrs; assay type: ADME; conditions: simulated gi fluid, pH 1.2, 12 h
[6] = Stability of the compound in stimulated […] fluid at pH 6.8 measured after 12 hrs; assay type: ADME; conditions: simulated intestinal fluid, read-out: Stability
[7] = Stability of the compound in stimulated […] fluid at pH 1.2 measured after 1 min; assay type: ADME; conditions: simulated gi fluid, pH 1.2, 1 min
[8] = Stability of the compound in stimulated […] fluid at pH 6.8 measured after 8 hrs; assay type: ADME; conditions: simulated intestinal fluid, read-out: Stability
[9] = Stability of the compound in stimulated […] fluid at pH 6.8 measured after 4 hrs; assay type: ADME; conditions: simulated intestinal fluid, read-out: Stability
[10] = Stability of the compound in stimulated […] fluid at pH 6.8 measured after 1 min; assay type: ADME; conditions: simulated intestinal fluid, read-out: Stability
[11] = Stability of the compound in stimulated […] fluid at pH 6.8 measured after 2 hrs; assay type: ADME; conditions: simulated intestinal fluid, read-out: Stability
[12] = Half life in human liver microsomes at 1 uM incubated for 2 to 60 mins in presence of NADPH by LC-MS/MS analysis; assay type: ADME, Microsome; conditions: time 2-60 min
[13] = Half life in rat liver microsomes at 1 uM incubated for 2 to 60 mins in presence of NADPH by LC-MS/MS analysis; assay type: ADME, Microsome; conditions: time 2-60 min
[14] = Half life in Sprague-Dawley rat at 1.2 mg/kg,IG measured upto 24 hrs by LC-MS/MS analysis; assay type: ADME, organism-based; conditions: in vivo, po
[15] = Cmax in Sprague-Dawley rat at 1.2 mg/kg,IG measured upto 24 hrs by LC-MS/MS analysis; assay type: ADME, organism-based; design: time < 24 hrs, dose 1.2 mg/kg, route ig; conditions: in vivo, po
[16] = Intrinsic clearance in mouse liver microsomes at 1 uM incubated for 2 to 60 mins in presence of NADPH by LC-MS/MS analysis; assay type: ADME, Microsome; conditions: time 2-60 min, read-out: CLH
[17] = Intrinsic clearance in human liver microsomes at 1 uM incubated for 2 to 60 mins in presence of NADPH by LC-MS/MS analysis; assay type: ADME, Microsome; conditions: time 2-60 min, read-out: CLH
[18] = Tmax in Sprague-Dawley rat at 1.2 mg/kg,IG measured upto 24 hrs by LC-MS/MS analysis; assay type: ADME, organism-based; conditions: in vivo, po
[19] = Half life in mouse liver microsomes at 1 uM incubated for 2 to 60 mins in presence of NADPH by LC-MS/MS analysis; assay type: ADME, Microsome; conditions: time 2-60 min
[20] = molecular target: Voltage-gated inwardly rectifying potassium channel KCNH2 (Homo sapiens, UniProt Q12809); experiment: Inhibition of human ERG expressed in HEK293 cells; assay type: toxicity, cell-based
[21] = Half life in monkey liver microsomes at 1 uM incubated for 2 to 60 mins in presence of NADPH by LC-MS/MS analysis; assay type: ADME, Macaca mulatta, Microsome; conditions: rhesus monkey, time 2-60 min
[22] = Half life in Sprague-Dawley rat at 0.4 mg/kg,iv measured upto 24 hrs by LC-MS/MS analysis; assay type: ADME, organism-based; conditions: in vivo
[23] = Intrinsic clearance in monkey liver microsomes at 1 uM incubated for 2 to 60 mins in presence of NADPH by LC-MS/MS analysis; assay type: ADME, Macaca mulatta, Microsome; conditions: rhesus monkey, time 2-60 min, read-out: CLH
[24] = AUC(0-t) in Sprague-Dawley rat at 1.2 mg/kg,IG measured upto 24 hrs by LC-MS/MS analysis; assay type: ADME, organism-based; design: dose 1.2 mg/kg, time < 24 hrs, route ig; conditions: in vivo, po
[25] = Intrinsic clearance in dog liver microsomes at 1 uM incubated for 2 to 60 mins in presence of NADPH by LC-MS/MS analysis; assay type: ADME, Canis lupus familiaris, Microsome; conditions: time 2-60 min, read-out: CLH
[26] = Half life in dog liver microsomes at 1 uM incubated for 2 to 60 mins in presence of NADPH by LC-MS/MS analysis; assay type: ADME, Canis lupus familiaris, Microsome; conditions: time 2-60 min
RPMI-8226 [27] = experiment: Antitumor activity against human RPMI-8226 cells xenografted in Balb/c mouse assessed as tumor growth inhibition at po administration biweekly for 21 days; assay type: functional, organism-based; conditions: time 21.0 day
[28] = Oral bioavailability in Sprague-Dawley rat at 1.2 mg/kg measured upto 24 hrs by LC-MS/MS analysis; assay type: ADME, organism-based; conditions: in vivo
[29] = AUC (0-t) in Sprague-Dawley rat at 0.4 mg/kg,iv measured upto 24 hrs by LC-MS/MS analysis; assay type: ADME, organism-based; design: time < 24 hrs, dose 0.4 mg/kg, route iv; conditions: in vivo
[30] = Toxicity in Balb/c mouse xenografted with human RPMI-8226 cells assessed as body weight loss at 6 mg/kg,po administrated biweekly for 21 days; assay type: organism-based; conditions: in vivo, 504 h, time 21 day
[31] = Toxicity in Balb/c mouse xenografted with human RPMI-8226 cells assessed as body weight loss at 10 mg/kg,po administrated biweekly for 21 days; assay type: organism-based; conditions: in vivo, 504 h, time 21 day
[32] = Intrinsic clearance in rat liver microsomes at 1 uM incubated for 2 to 60 mins in presence of NADPH by LC-MS/MS analysis; assay type: ADME, Microsome; conditions: time 2-60 min, read-out: CLH

Sequence of Voltage-gated inwardly rectifying potassium channel KCNH2 (Q12809 whole entry): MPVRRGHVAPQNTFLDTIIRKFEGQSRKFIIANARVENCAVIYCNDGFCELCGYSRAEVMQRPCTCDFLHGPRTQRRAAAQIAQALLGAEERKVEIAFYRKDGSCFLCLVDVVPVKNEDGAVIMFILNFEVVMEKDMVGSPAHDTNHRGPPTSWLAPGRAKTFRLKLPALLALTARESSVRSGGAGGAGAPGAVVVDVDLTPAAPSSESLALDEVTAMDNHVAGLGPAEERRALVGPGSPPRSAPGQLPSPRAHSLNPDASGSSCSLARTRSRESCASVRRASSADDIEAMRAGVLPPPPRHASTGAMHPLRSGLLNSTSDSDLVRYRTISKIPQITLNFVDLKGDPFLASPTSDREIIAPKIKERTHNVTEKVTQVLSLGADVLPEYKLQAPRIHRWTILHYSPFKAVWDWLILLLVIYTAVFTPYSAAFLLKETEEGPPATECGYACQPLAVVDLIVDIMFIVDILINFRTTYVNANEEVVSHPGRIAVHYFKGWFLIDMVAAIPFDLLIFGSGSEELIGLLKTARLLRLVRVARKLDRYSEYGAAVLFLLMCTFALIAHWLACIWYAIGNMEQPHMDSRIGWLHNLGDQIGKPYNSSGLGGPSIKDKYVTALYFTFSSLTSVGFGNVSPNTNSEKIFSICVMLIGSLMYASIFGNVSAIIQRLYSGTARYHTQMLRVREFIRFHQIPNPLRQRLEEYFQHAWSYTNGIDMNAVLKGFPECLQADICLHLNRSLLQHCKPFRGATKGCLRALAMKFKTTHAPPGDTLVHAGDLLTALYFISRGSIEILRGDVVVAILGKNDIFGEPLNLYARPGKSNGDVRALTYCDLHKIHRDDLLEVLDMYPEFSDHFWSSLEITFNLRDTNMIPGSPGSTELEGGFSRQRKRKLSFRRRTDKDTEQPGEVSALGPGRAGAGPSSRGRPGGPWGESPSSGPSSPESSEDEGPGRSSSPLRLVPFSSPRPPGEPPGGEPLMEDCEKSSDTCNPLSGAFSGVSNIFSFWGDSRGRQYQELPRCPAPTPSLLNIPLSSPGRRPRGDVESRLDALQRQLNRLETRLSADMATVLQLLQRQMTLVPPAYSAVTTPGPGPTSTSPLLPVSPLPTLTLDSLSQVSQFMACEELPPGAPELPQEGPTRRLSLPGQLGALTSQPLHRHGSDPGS

Compound: CC(C)C[C@H](NC(=O)CNC(=O)c1cc(Cl)ccc1Cl)B1OC2CC3C(=O)NC(=O)C3CC2(C)O1 (stereo partly specified)
IC50 (20S proteasome): 9.8 nM
IC50 (RPMI-8226 [1]): 8.7 nM

Compound: CC(C)C[C@H](NC(=O)C(NC(=O)c1cc(C(F)(F)F)ccc1C(F)(F)F)C1CCCC1)B1OC2C3OC(CC3C(=O)O)C2(C)O1 (stereo partly specified)
IC50 (20S proteasome): 2.4 nM
IC50 (RPMI-8226 [1]): 13.6 nM

Compound: CC(C)C[C@H](NC(=O)C(CC1CC1)NC(=O)c1cc(C(F)(F)F)ccc1C(F)(F)F)B(O)O (stereo partly specified)
IC50 (20S proteasome): 5 nM
IC50 (RPMI-8226 [1]): 4.9 nM

Compound: CC(C)C[C@H](NC(=O)CNC(=O)c1cc(Br)ccc1Br)B(O)O
IC50 (20S proteasome): 4 nM
IC50 (RPMI-8226 [1]): 14.7 nM

Compound: CC(C)C[C@H](NC(=O)CNC(=O)c1cc(Cl)ccc1Cl)B1OC2C3OC(C4C(=O)NC(=O)C34)C2(C)O1 (stereo partly specified)
Stability [2]: 67.8%
Stability [3]: 70.5%
Stability [4]: 66.14%
IC50 (20S proteasome): 22.4 nM
Stability [5]: 66.9%
remaining at 12 h [6]: 10.8%
Stability [7]: 70.91%
IC50 (RPMI-8226 [1]): 6.8 nM
remaining at 8 h [8]: 13.5%
remaining at 4 h [9]: 11.4%
remaining at 1 min [10]: 15%
remaining at 2 h [11]: 11.4%

Compound: CC(C)C[C@H](NC(=O)C(CC1CC1)NC(=O)c1cc(C(F)(F)F)ccc1C(F)(F)F)B1OC2C3OC(CC3C(=O)O)C2(C)O1 (stereo partly specified)
half-life at 1 µM [12]: 28.3 min
half-life at 1 µM [13]: 25.2 min
half-life [14]: 1800 min
Cmax [15]: 174 ng/mL
microsomal CLint at 1 µM [16]: 49 µL/min/mg
Stability [2]: 59.73%
microsomal CLint at 1 µM [17]: 49 µL/min/mg
Stability [3]: 58.25%
Tmax [18]: 49.8 min
half-life at 1 µM [19]: 28.3 min
IC50 [20]: > 30000 nM
half-life at 1 µM [21]: 8.8 min
Stability [4]: 58.68%
half-life [22]: 1450 min
IC50 (20S proteasome): 2.2 nM
Stability [5]: 59.68%
remaining at 12 h [6]: 6.77%
Stability [7]: 6.44%
IC50 (RPMI-8226 [1]): 5.6 nM
microsomal CLint at 1 µM [23]: 158 µL/min/mg
AUC(0-t) at 24 h [24]: 2680 ng·h/mL
microsomal CLint at 1 µM [25]: 19 µL/min/mg
remaining at 8 h [8]: 5.24%
half-life at 1 µM [26]: 72.9 min
Activity (RPMI-8226 [27]): Dose-Dependent Effect
bioavailability [28]: 34%
AUC(0-t) at 24 h [29]: 2270 ng·h/mL
remaining at 4 h [9]: 3.98%
Activity [30]: Non-Toxic
remaining at 1 min [10]: 2.27%
Activity [31]: Non-Toxic
remaining at 2 h [11]: 3.55%
microsomal CLint at 1 µM [32]: 55 µL/min/mg

Compound: CC(C)C[C@H](NC(=O)CNC(=O)c1cc(Cl)ccc1Cl)B(O)O [IXAZOMIB]
Stability [2]: 100%
Stability [3]: 100%
Stability [4]: 100%
Stability [5]: 100%
remaining at 12 h [6]: 100%
Stability [7]: 100%
IC50 (RPMI-8226 [1]): 7.4 nM
remaining at 8 h [8]: 100%
Activity (RPMI-8226 [27]): Dose-Dependent Effect
remaining at 4 h [9]: 100%
Activity [30]: Non-Toxic
remaining at 1 min [10]: 12.6%
Activity [31]: Non-Toxic
remaining at 2 h [11]: 100%

Compound: CC(C)C[C@H](NC(=O)C(NC(=O)c1cc(C(F)(F)F)ccc1C(F)(F)F)C1CC1)B1OC2C3OC(CC3C(=O)O)C2(C)O1 (stereo partly specified)
half-life at 1 µM [12]: 66.6 min
half-life at 1 µM [13]: 24.9 min
half-life [14]: 718 min
Cmax [15]: 46.5 ng/mL
microsomal CLint at 1 µM [16]: 37.8 µL/min/mg
Stability [2]: 56.83%
microsomal CLint at 1 µM [17]: 20.8 µL/min/mg
Stability [3]: 57.32%
Tmax [18]: 10.2 min
half-life at 1 µM [19]: 36.7 min
half-life at 1 µM [21]: 38.9 min
Stability [4]: 58.67%
half-life [22]: 1450 min
IC50 (20S proteasome): 2.7 nM
Stability [5]: 58.73%
remaining at 12 h [6]: 5.76%
Stability [7]: 5.35%
IC50 (RPMI-8226 [1]): 2.9 nM
microsomal CLint at 1 µM [23]: 35.6 µL/min/mg
AUC(0-t) at 24 h [24]: 126 ng·h/mL
microsomal CLint at 1 µM [25]: 16.4 µL/min/mg
remaining at 8 h [8]: 3.93%
half-life at 1 µM [26]: 84.5 min
bioavailability [28]: 9.8%
AUC(0-t) at 24 h [29]: 323 ng·h/mL
remaining at 4 h [9]: 2.68%
remaining at 1 min [10]: 2.35%
remaining at 2 h [11]: 2.82%
microsomal CLint at 1 µM [32]: 55.6 µL/min/mg

Second part, led by results:

IC50 (20S proteasome): 285 nM
Compound: CC(C)C[C@H](NC(=O)C1(NC(=O)c2cc(C(F)(F)F)ccc2C(F)(F)F)CCCC1)B(O)O

IC50 (20S proteasome): 5.6 nM
Compound: CC(C)C[C@H](NC(=O)C(NC(=O)c1cc(C(F)(F)F)ccc1C(F)(F)F)C1CC1)B(O)O (stereo partly specified)
IC50 (RPMI-8226 [1]): 6.7 nM

IC50 (20S proteasome): 5.2 nM
Compound: CC(C)C[C@H](NC(=O)CNC(=O)c1cc(C(F)(F)F)ccc1C(F)(F)F)B(O)O
IC50 (RPMI-8226 [1]): 18.4 nM

— ChEMBL document CHEMBL5385891, “Design and discovery of novel dipeptide boronic acid ester proteasome inhibitors, an oral slowly-released prodrug for the treatment of multiple myeloma” (Eur J Med Chem, 2023)
